The values that follow come from patent US4249005A, “Alkoxymethyl and benzyloxymethyl phenobarbital compounds” (priority 1969, dated 1981).

As a reminder, the LD50 is the dose at which mortality reaches 50%. Usually ED50 stands for the dose at which the effect has come halfway, by size or by number of responders. As usually defined, the TD50 is the 50% point of the dose-response relation for the toxic effect studied.

Where only a bound is given, the exact number is not on record here.

One series in a line: Acute oral toxicity. Set-up: species or system adult albino male mice (Charles River strain). The note with it: mouse, in vivo. On the procedure:
(§1) All tests, with the exceptions noted, were conducted on adult albino male mice (Charles River strain); the dosage consisted of the active agent suspended in 10% aqueous acacia and was administered orally unless otherwise indicated.
(§2) Acute oral toxicity and acute intraperitoneal toxicity were determined in the conventional manner. The results were expressed as LD50, the dose required to produce death in 50% of the animals treated, determined graphically, with the 95% limits shown in parentheses.

Series [1] can be described thus: Anticonvulsant effectiveness against maximal electroshock. The format is in vivo, adult albino male mice (Charles River strain). The note with it: for ED50: Mus musculus, at time of peak effect, limits in parentheses; for ED50 / Time of peak activity: oral, mice. On the procedure:
as §1
(§3) Anticonvulsant effectiveness of each agent against maximal electroshock was determined at the time of peak effect. The time of peak anticonvulsant activity was determined by administering dosages of various sizes to a group of animals and administering a maximal electroshock to the animals at intervals thereafter by supply 60 ma. current through a corneal electrode for 0.2 second. […] The time of peak effect thus determined was used for all subsequent tests of anticonvulsant activity on the same active agent.
The duration of the anticonvulsant effect against maximal electroshock was compared with that of phenobarbital sodium at a dosage level of 0.1 millimole/kg of each.
(In general: Protection in the maximal electroshock model is a classic sign of anticonvulsant action.)

A short description of series [2]: Acute intraperitoneal toxicity. Conditions: mouse, in vivo, ip, mice, 95% limits in parentheses. Further details: species or system adult albino male mice (Charles River strain). The procedure: as §1, §2
The nature of series [3]: Anticonvulsant effectiveness against Metrazol. Conditions: oral, mice; for ED50: Mus musculus, Metrazol 106.25 mg/kg subcutaneously, limits in parentheses. The class given is in vivo, adult albino male mice (Charles River strain). On the procedure:
as §1
(§4) Anticonvulsant effectiveness was determined against a convulsive dose of Metrazol (106.25 mg/kg) injected subcutaneously; the criterior for effectiveness was failure to show clonic convulsive seizures. Anticonvulsant activity was determined against a lethal dose of strychnine sulfate (1.5 mg/kg) injected subcutaneously; the criterion was failure to die, even though seizures appeared.

Series [4] is described as follows: Hypnotic activity (loss of the righting reflex). The class given is in vivo, adult albino male mice (Charles River strain). The note with it: any dosage less than a lethal dose for compounds of the invention. The procedure:
as §1

The conditions of series [5]: cited from earlier work.
Series [6] in a line: Anticonvulsant activity against strychnine. The format is in vivo, adult albino male mice (Charles River strain). Conditions: Mus musculus, po, read-out: Strychnine, ED50. The procedure:
as §1, §4

Series [7] in a line: Anticonvulsant activity against maximal electroshock in the rat. Conditions: rat (Sprague Dawley Strain); limits in parentheses. The class given is in vivo. The procedure:
as §3

The conditions of series [8]: reported in Doran, Medicinal Chemistry, 1959; cited from earlier work.
Series [9] can be described thus: Neurological deficit (Swinyard et al. plus rotorod). Set-up: species or system adult albino male mice (Charles River strain). Conditions: mouse, in vivo; oral, mice; 95% limits in parentheses. On the procedure:
as §1
The dosage required to produce a neurological deficit was determined by the method of Swinyard et al., J. Pharmacol. Exptl. Therap. 106, 319 (1952) except that one additional test was employed: the ability of the animal to remain for at least one minute on a "rotorod", a horizontal rod rotated at 6 r.p.m. The results were expressed as TD50, the dose required to produce the effect, determined graphically, with 95% limits.
A general note: Falling from the rotarod earlier than controls is read as motor impairment.

[10] abbreviates: oral, mice, 95% limits in parentheses, read-out: LD50 (oral).
[11] abbreviates: 0.1 millimole/kg, maximal electroshock.

Turning to `CCCCOCN1C(=O)NC(c2ccccc2)(c2ccccc2)C1=O` [Example 6, 3-(n)-butoxymethyl-5,5-diphenylhydantoin], in “Acute oral toxicity” (setting [10]), the 50% lethal dose (LD50) is more than 500 mg/kg. In series [1], the ED50 was less than 25 mg/kg.
For `CCC1(CC)C(=O)N(COC)C(=O)N(COC)C1=O` [Example 9, 1,3-dimethoxymethyl-5,5-diethyl-barbituric acid], the LD50 in series [2] is approximately 1000 mg/kg; in “Acute oral toxicity” (setting [10]), more than 1000 mg/kg. Besides, the ED50 in series [3] turned out to be 7 mg/kg. In addition, in series [3] (reported with Metrazol result, test not stated), the “Time of peak activity” value is 1 h.
As for `CCOCN1C(=O)N(COCC)C(=O)C(CC)(c2ccccc2)C1=O` [Example 5, 1,3-diethoxymethyl-5-ethyl-5-phenyl barbituric acid], in series [1], the 50% effective dose (ED50) was less than 25 mg/kg. In series [1] (maximal electroshock), the “Time of peak activity” value was 11/2.
For `CCCCOCN1C(=O)N(COCCCC)C(=O)C(CC)(c2ccccc2)C1=O` [Example 4, 1,3-di-(n)-butoxymethyl-5-ethyl-5-phenyl barbituric acid], the LD50 in “Acute oral toxicity” (setting [10]) was more than 500 mg/kg. Also, the ED50 in [1] was less than 100 mg/kg.
`CCC1(c2ccccc2)C(=O)NC(=O)NC1=O` [Phenobarbital, phenobarbital]: in series [4], the “Hypnotic activity (loss of the righting reflex, onset of sleep)” value is listed as “did exhibit hypnotic activity”. The hypnotic activity entry in series [5] (known property) was “exhibits hypnotic activity as well as anticonvulsant activity”. Further, the anticonvulsant usefulness result in series [5] (long known, treatment of epilepsy) was “useful as anticonvulsant agents in warm-blooded animals”.
Regarding `O=C1NC(=O)C(c2ccccc2)(c2ccccc2)N1` [diphenylhydantoin], in series [5] (known property), the hypnotic activity result is on record as “not hypnotic”; the undesirable side effects result was “hypertrophic gingivitis, megaloblastic anemia, toxic psychoses, and hirsutism”.
As for `CCCCCCCCCCCCOCN1C(=O)N(COCCCCCCCCCCCC)C(=O)C(CC)(c2ccccc2)C1=O` [Example 8, 1,3-dilauryloxymethyl-5-ethyl-5-phenyl barbituric acid], in the series “Acute oral toxicity” (setting [10]), the LD50 is more than 500 mg/kg. Moreover, the 50% effective dose (ED50) in [1] is approximately 50 mg/kg. Moreover, in series [1] (maximal electroshock), the “Time of peak activity” value worked out at 2 h.
Regarding `CCC1(c2ccccc2)C(=O)NC(=O)NC1=O` [phenobarbital sodium, reference compound], in series [1] (setting [11]), the “time at which protection began to decrease” value is recorded as “four” and the “time at which protection was nearly gone” value is “eight”. Besides, the “onset of protection against maximal electroshock” value in series [1] (0.1 millimole/kg, comparator) is “less than 0.5 hour”.
As for `CCCCCCCCCCCCOCN1C(=O)N(COCCCCCCCCCCCC)C(=O)C(CC)(CC)C1=O` [Example 10, 1,3-di-n-dodecyloxymethyl-5,5-diethyl barbituric acid], the 50% lethal dose (LD50) in “Acute oral toxicity” (setting [10]) was more than 1000 mg/kg. In addition, in series [3], the median effective dose (ED50) was approximately 200 mg/kg.
Take `C=CCC1(C(C)CCC)C(=O)N(COC)C(=O)N(COC)C1=O` (stereo not drawn) [Example 11, 1,3-dimethoxymethyl-5-allyl-5-(2-pentyl) barbituric acid]: in the series “Acute oral toxicity” (setting [10]), the LD50 is more than 500 mg/kg. Further, the ED50 in series [3] is approximately 100 mg/kg.
As for `COCN1C(=O)NC(c2ccccc2)(c2ccccc2)C1=O` [Example 2, 3-methoxymethyl-5,5-diphenylhydantoin], the LD50 in “Acute oral toxicity” (route not stated with the value (oral unless otherwise indicated), read-out: LD50) was approximately 500 mg/kg. In addition, the ED50 in series [1] is less than 25 mg/kg. Besides, in series [1] (after ingestion), the “duration of anticonvulsant activity (maximal electroshock)” value is recorded as “more than 2 hours” and the “onset of anticonvulsant activity (maximal electroshock)” value is on record as “less than 0.5 hour”.
As to `C=CCC1(C(C)CCC)C(=O)N(COCc2ccccc2)C(=O)N(COCc2ccccc2)C1=O` (stereo not drawn) [Example 12, 1,3-dibenzyloxymethyl-5-allyl-5-(2-pentyl) barbituric acid], the LD50 in the series “Acute oral toxicity” (setting [10]) is more than 1000 mg/kg. Also, the ED50 in [3] is approximately 200 mg/kg.
With `CCC1(c2ccccc2)C(=O)N(COC)C(=O)N(COC)C1=O` [Example 1, 1,3-dimethoxymethyl-5-ethyl-5-phenyl barbituric acid], the LD50 in series [2] was found to be 490 mg/kg; in the series “Acute oral toxicity” (setting [10]), 470 mg/kg. The ED50 in series [6] was 200 mg/kg; in series [1], 13.5 mg/kg; in series [3] it was 47 mg/kg; in [7] it was 6.6 mg/kg. The “duration of protection against maximal electroshock at about the same level” value in [1] (0.1 millimole/kg) was “more than eight”. Besides, the “Time of peak activity” value in series [1] (maximal electroshock) is 2 h. In addition, the “change in the ED50 to protect against maximal electroshock on repeated dosage” value in [1] (repeated daily dosage of the same animals for four days) was “no significant change”. Besides, the hypnotic effect entry in series [8] was “without effect”. For the same compound, in series [9], the TD50 stood at 47 mg/kg.
